Assay [1] deals with ATRA-resistant NB4-LR2. Kind of assay: Cell cycle arrest in human ATRA-resistant NB4-LR2 cells transfected with pLVX-shRXRalpha assessed as increase in PLK1 expression at 8 uM incubated for 12 hrs by Western blot analysis. It counts as functional, cell-based.
Assay [2] in a line: Induction of apoptosis in human ATRA-resistant NB4-LR2 cells assessed as necrotic cells at 10 uM incubated for 24 hrs by Annexin V-FITC/PI staining based flow cytometric analysis (reference value: 0.08 %). It counts as functional.
Assay [3] concerns NB-4. Briefly: Induction of apoptosis in human NB4 cells assessed as necrotic cells at 10 uM incubated for 24 hrs by Annexin V-FITC/PI staining based flow cytometric analysis (reference value: 0.07 %). It counts as functional.
The subject of assay [4] is ATRA-resistant NB4-LR2. Kind of assay: Cell cycle arrest in human ATRA-resistant NB4-LR2 cells transfected with pLVX-shRXRalpha assessed as increase in cyclin B1 expression at 8 uM incubated for 12 hrs by Western blot analysis. It counts as functional, cell-based.
For assay [5], the system named is NB-4. Briefly: Induction of apoptosis in human NB4 cells assessed as early apoptotic cells at 10 uM incubated for 24 hrs by Annexin V-FITC/PI staining based flow cytometric analysis (reference value: 4.37 %). Format: functional.
Assay [6] is described as follows: Induction of apoptosis in human ATRA-resistant NB4-LR2 cells assessed as viable cells at 10 uM incubated for 24 hrs by Annexin V-FITC/PI staining based flow cytometric analysis (reference value: 87.30 %). The settings on record: read-out: Activity. Format: functional.
Assay [7] relates to NB-4. Briefly: Induction of apoptosis in human NB4 cells assessed as viable cells at 10 uM incubated for 24 hrs by Annexin V-FITC/PI staining based flow cytometric analysis (reference value: 92.36 %). Format: functional. The conditions noted are these: read-out: Activity.
Assay [8] relates to ATRA-resistant NB4-LR2. Kind of assay: Induction of apoptosis in human ATRA-resistant NB4-LR2 cells transfected with pLVX-shRXRalpha assessed as increase in cleaved PARP expression at 8 uM incubated for 12 hrs by Western blot analysis. It counts as functional, cell-based.
A short description of assay [9]: Induction of apoptosis in human ATRA-resistant NB4-LR2 cells assessed as late apoptotic cells at 10 uM incubated for 24 hrs by Annexin V-FITC/PI staining based flow cytometric analysis (reference value: 7.23 %). It counts as functional.
For assay [10], the system named is NB-4. Briefly: Induction of apoptosis in human NB4 cells assessed as late apoptotic cells at 10 uM incubated for 24 hrs by Annexin V-FITC/PI staining based flow cytometric analysis (reference value: 3.20 %). Format: functional.
A short description of assay [11]: Induction of apoptosis in human ATRA-resistant NB4-LR2 cells assessed as early apoptotic cells at 10 uM incubated for 24 hrs by Annexin V-FITC/PI staining based flow cytometric analysis (reference value: 5.38 %). Format: functional.

We go through 1 compound from ChEMBL document CHEMBL6134780, “Halogenated retinoid derivatives as dual RARα and RXRα modulators for treating acute promyelocytic leukemia cells” (Eur J Med Chem, 2024).

Calls of active or inactive are those of the source. The rule behind the calls is not given here.

With `COc1ccc(CC(=O)N/N=C/c2c(O)ccc3ccccc23)cc1`, the result in the assay on ATRA-resistant NB4-LR2 [1], with ATRA-resistant NB4-LR2 [4] and with ATRA-resistant NB4-LR2 [8] was inactive. The Activity worked out at 0.77% in [2]; 1.78% in the assay on NB-4 [3]; 20.4% in the assay with NB-4 [5]; 18.38% in assay [9]; 18.15% in the assay with NB-4 [10]; 17.31% in assay [11]. The viability at 10 µM worked out at 63.5% in assay [6] and 60.7% in the assay with NB-4 [7].
